# Earlier results as cited in US12357619B2, “Noradrenergic and specific serotonergic anxiolytic and antidepressant, method for the production and use thereof” (ALLA CHEM, LLC, priority 2020, dated 2025).
# Biological target: T1, Serotonin 5-HT2C (Homo sapiens, UniProt P28335)
# T1 sequence (P28335 33-458): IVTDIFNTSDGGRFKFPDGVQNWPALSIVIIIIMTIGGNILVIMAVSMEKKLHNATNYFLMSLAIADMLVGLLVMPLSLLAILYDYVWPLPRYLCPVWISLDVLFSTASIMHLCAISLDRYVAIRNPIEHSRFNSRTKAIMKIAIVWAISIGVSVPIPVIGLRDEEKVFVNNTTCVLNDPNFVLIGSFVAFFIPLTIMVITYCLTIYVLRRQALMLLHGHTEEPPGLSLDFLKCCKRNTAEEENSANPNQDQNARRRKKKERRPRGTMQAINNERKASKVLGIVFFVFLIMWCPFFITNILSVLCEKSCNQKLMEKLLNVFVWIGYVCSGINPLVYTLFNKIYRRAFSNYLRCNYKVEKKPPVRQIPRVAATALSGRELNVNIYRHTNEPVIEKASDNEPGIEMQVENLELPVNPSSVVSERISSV
# Settings: from en.wikipedia.org/wiki/Mirtazapine; cited from earlier work
smiles,measurement,value
CN1CCN2c3ncccc3Cc3ccccc3C2C1 (stereo not shown) [Mirtazapine],Ki,0.0089 to 0.039 µM
